These results are taken from ChEMBL document CHEMBL1201862, “PubChem BioAssay data set” (2004).

Among the test systems are NCI-H23; CCRF-CEM; NCI-H522; Malme-3M; SF-268; NCI/ADR-RES; COLO 205; RXF 393; SK-MEL-28; SK-MEL-5; SK-OV-3; UO-31; A498; HCT-15; HL-60; A549; SN12C; SR; MCF7.
What all share (experiment): NCI anticancer screen, dose series, 48 h

Values joined by “and” are separate entries in the source; they are usually repeats but may differ in a detail not shown here. Equal values may be shown once.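 Protocol summary: plate cells (96-well), add compound at 5 concentrations, incubate 48 h, interpolate endpoints linearly. At the GI50, growth is halved.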 Active and inactive are the calls of the source. Cut-off read from the data, not from the text of the source: active = GI50 up to about 1.1 µM and inactive = higher.

Consider `COC(=O)c1cnn2c1ccc1ccccc12`, for which the GI50 in the experiment on NCI-H23, in the experiment on CCRF-CEM, in the experiment with NCI-H522, with Malme-3M, with SF-268 and in the experiment with NCI/ADR-RES was > 100 µM (inactive) throughout. The GI50 in the experiment on COLO 205 is > 100 µM (inactive); with RXF 393, > 100 µM (inactive); in the experiment with SK-MEL-28 it was > 100 µM (inactive); with SK-MEL-5, > 100 µM (inactive); in the experiment on SK-OV-3, > 100 µM (inactive); in the experiment on UO-31 it was 47.8 µM (inactive). Also, the GI50 in the experiment on A498 was > 100 µM (inactive); with HCT-15, greater than 100 µM; with HL-60, 45.9 µM (inactive); with A549 it was > 100 µM (inactive); in the experiment with SN12C it was > 100 µM (inactive).
For `CCOC(=O)c1c(-c2ccc(O)c(OC)c2)c(C#N)c(=S)n(C2OC(COC(C)=O)C(OC(C)=O)C(OC(C)=O)C2OC(C)=O)c1-c1ccccc1` (configuration not stated), the GI50 in the experiment with NCI-H23 was 43.7 µM (inactive) and 61.1 µM (inactive); with CCRF-CEM, 58.7 µM (inactive) and 45.4 µM (inactive); with NCI-H522 it was 18.8 µM (inactive) and 19.2 µM (inactive); in the experiment on SF-268, > 100 µM (inactive) and 70.6 µM (inactive); with SR it was > 100 µM (inactive); in the experiment on NCI/ADR-RES it was 72.1 µM (inactive). The GI50 in the experiment on COLO 205 was 43.3 µM (inactive) and 30.3 µM (inactive); in the experiment with RXF 393, > 100 µM (inactive) and 58.9 µM (inactive); in the experiment on SK-MEL-28, 58.2 µM (inactive); in the experiment on UO-31 it was 43.7 µM (inactive) and 62.1 µM (inactive); in the experiment on A498, > 100 µM (inactive); in the experiment on HCT-15, 98.2 µM. The GI50 in the experiment on HL-60 was > 100 µM (inactive); with A549 it was > 100 µM (inactive) and 94.4 µM (inactive); in the experiment with SN12C it was > 100 µM (inactive) and 88.9 µM (inactive).
For `CC1=CC(=O)/C(=C/n2c(=S)[nH]c3cc(C)ccc32)C(=O)O1`, the GI50 was > 100 µM (inactive) with NCI-H23; 98.9 µM (inactive) in the experiment on CCRF-CEM; > 100 µM (inactive) with NCI-H522; > 100 µM (inactive) in the experiment with SF-268; > 100 µM (inactive) with NCI/ADR-RES; > 100 µM (inactive) in the experiment with COLO 205. Further, the GI50 in the experiment with RXF 393 was 6.21 µM (inactive); in the experiment with SK-MEL-28, > 100 µM (inactive); with MCF7 it was > 100 µM (inactive); in the experiment with SK-MEL-5 it was > 100 µM (inactive); with SK-OV-3, > 100 µM (inactive); in the experiment on UO-31, > 100 µM (inactive). The GI50 is greater than 100 µM in the experiment on HCT-15, 55.6 µM (inactive) with HL-60, > 100 µM (inactive) with A549 and > 100 µM (inactive) in the experiment with SN12C.
For the molecule `O=C(C1OC1c1cccc([N+](=O)[O-])c1)C12CC3CC(CC(C3)C1)C2` (configuration not stated), the GI50 is 5.74 µM (inactive) in the experiment with NCI-H23; 2.89 µM (inactive) with CCRF-CEM; 3.81 µM (inactive) in the experiment with NCI-H522; 13.7 µM (inactive) in the experiment with Malme-3M; 2.63 µM (inactive) in the experiment on SF-268; 3.24 µM (inactive) in the experiment on NCI/ADR-RES. Further, the GI50 in the experiment with COLO 205 is 9.89 µM (inactive); in the experiment with RXF 393, 5.33 µM (inactive); in the experiment with SK-MEL-28, 12.3 µM (inactive); with MCF7, 2.86 µM (inactive); in the experiment with SK-MEL-5, 10.5 µM (inactive); in the experiment on SK-OV-3, 16.9 µM (inactive). The GI50 in the experiment with UO-31 was 8.26 µM (inactive); with A498, 5.13 µM (inactive); with HCT-15, 4.3 µM; in the experiment on HL-60, 2.43 µM (inactive); with A549 it was 12.9 µM (inactive); in the experiment with SN12C it was 4.2 µM (inactive).
Take `NCCN1C(=O)CN=C(c2ccc(Cl)cc2)c2cc(Cl)ccc21`: the GI50 is 18.1 µM (inactive) in the experiment with NCI-H23; 15.5 µM (inactive) in the experiment on CCRF-CEM; 16.1 µM (inactive) in the experiment on NCI-H522; 14.2 µM (inactive) in the experiment on Malme-3M; 14.4 µM (inactive) in the experiment on SF-268; 17.9 µM (inactive) in the experiment with SR. In addition, the GI50 with NCI/ADR-RES is 15.9 µM (inactive); in the experiment on COLO 205, 19.3 µM (inactive); in the experiment with RXF 393, 11.5 µM (inactive); in the experiment with SK-MEL-28, > 100 µM (inactive); with SK-MEL-5, 16.9 µM (inactive); in the experiment on SK-OV-3, 22.4 µM (inactive). Besides, the GI50 with UO-31 is 13.9 µM (inactive); in the experiment with A498 it was 19.1 µM (inactive); with HCT-15, 16.7 µM; in the experiment with HL-60 it was 16 µM (inactive); in the experiment on A549, 17.1 µM (inactive); in the experiment with SN12C, 22.5 µM (inactive).
As for `O=S(=O)(/N=c1/[nH]c2ccccc2n1S(=O)(=O)c1ccccc1)c1ccccc1`, the GI50 is 41.6 µM (inactive) in the experiment on NCI-H23; 31.3 µM (inactive) in the experiment on CCRF-CEM; 50.4 µM (inactive) with NCI-H522; 37.2 µM (inactive) with Malme-3M; 42.4 µM (inactive) with SF-268; > 10 µM (inactive) with SR. The GI50 is 44.9 µM (inactive) in the experiment with NCI/ADR-RES; 53.5 µM (inactive) in the experiment with COLO 205; 56.8 µM (inactive) in the experiment on RXF 393; 34.4 µM (inactive) in the experiment with SK-MEL-28; 47.8 µM (inactive) in the experiment with SK-MEL-5; 50 µM (inactive) in the experiment on SK-OV-3. Moreover, the GI50 was 36.3 µM (inactive) in the experiment with UO-31; 80.9 µM (inactive) in the experiment on A498; 36.3 µM in the experiment with HCT-15; 42.4 µM (inactive) in the experiment with A549; 65.5 µM (inactive) in the experiment on SN12C.
On to `COc1ccc2cc3[n+](cc2c1O)CCc1cc2c(cc1-3)OCO2` [BERBERRUBINE CHLORIDE], for which the GI50 in the experiment with NCI-H23 was 70 µM (inactive); with CCRF-CEM it was 80.7 µM (inactive); in the experiment with NCI-H522, > 100 µM (inactive); in the experiment on Malme-3M, > 100 µM (inactive); with SF-268, > 100 µM (inactive); in the experiment on COLO 205, > 100 µM (inactive). For the same molecule, the GI50 in the experiment with RXF 393 is > 100 µM (inactive); in the experiment on SK-MEL-28, > 100 µM (inactive); in the experiment on SK-OV-3, > 100 µM (inactive); with UO-31 it was > 100 µM (inactive); in the experiment on A498, > 100 µM (inactive); in the experiment on HCT-15, greater than 100 µM. The GI50 was > 100 µM (inactive) in the experiment on HL-60, 96.6 µM (inactive) in the experiment on A549 and > 100 µM (inactive) in the experiment on SN12C.
As to `CCOP(=O)(/C=C/n1ccc(N)nc1=O)OCC`, the GI50 in the experiment on NCI-H23, with CCRF-CEM, in the experiment on NCI-H522, in the experiment on SF-268, with NCI/ADR-RES and in the experiment on COLO 205 was > 100 µM (inactive) in each case. The GI50 in the experiment with RXF 393, in the experiment on SK-MEL-28, with MCF7, with SK-MEL-5, in the experiment on SK-OV-3 and in the experiment with A498 was > 100 µM (inactive) throughout. Further, the GI50 was greater than 100 µM in the experiment with HCT-15, > 100 µM (inactive) with HL-60, > 100 µM (inactive) with A549 and > 100 µM (inactive) in the experiment on SN12C.
For `CCOC(=O)C1=CNC2=N[C@H]3CCCC[C@@H]3N2C1=O`, the GI50 in the experiment on NCI-H23, in the experiment with CCRF-CEM, in the experiment on NCI-H522, in the experiment on Malme-3M, in the experiment with SF-268 and in the experiment with NCI/ADR-RES was > 100 µM (inactive) each time. The GI50 with COLO 205, with SK-MEL-28, in the experiment with MCF7, in the experiment on SK-MEL-5, with SK-OV-3 and in the experiment on UO-31 was > 100 µM (inactive) throughout. Further, the GI50 in the experiment on A498 is > 100 µM (inactive); with HCT-15, greater than 100 µM; with HL-60 it was > 100 µM (inactive); in the experiment with A549, > 100 µM (inactive); in the experiment with SN12C it was > 100 µM (inactive).
As to `O=C(NNc1nc(-c2ccccc2)cs1)Nc1ccccc1`, the GI50 with NCI-H23 is 20.2 µM (inactive); in the experiment on CCRF-CEM it was 34.3 µM (inactive); in the experiment on Malme-3M it was 39.5 µM (inactive); with SF-268, 27.5 µM (inactive); in the experiment with NCI/ADR-RES it was 20.7 µM (inactive); with COLO 205 it was 19.6 µM (inactive). In addition, the GI50 in the experiment with RXF 393 is 6.14 µM (inactive); in the experiment on SK-MEL-28, 30.4 µM (inactive); in the experiment on MCF7 it was 25.3 µM (inactive); with SK-MEL-5, 20.7 µM (inactive); with SK-OV-3 it was 22.6 µM (inactive); in the experiment with UO-31 it was 25.4 µM (inactive). The GI50 in the experiment with HCT-15 is 26.6 µM; with A549, 19.5 µM (inactive); in the experiment on SN12C, 30.9 µM (inactive).
Take `C[C@]12CC[C@@H]3c4ccc(OS(N)(=O)=O)cc4CC[C@H]3[C@@H]1CCC2=O` [EMATE]: the GI50 in the experiment on NCI-H23 is 37.8 µM (inactive); with CCRF-CEM, 39 µM (inactive); with Malme-3M it was 45.6 µM (inactive); in the experiment with SF-268 it was 32.9 µM (inactive); in the experiment on NCI/ADR-RES, 26.6 µM (inactive); with COLO 205 it was 38.7 µM (inactive). In addition, the GI50 with RXF 393 was 63.4 µM (inactive); with SK-MEL-28, 95.1 µM (inactive); in the experiment on MCF7 it was 36.5 µM (inactive); in the experiment on SK-MEL-5 it was 13.5 µM (inactive); in the experiment on SK-OV-3, > 100 µM (inactive); with UO-31, 38.7 µM (inactive). The GI50 with A498 was 97.1 µM (inactive); with HCT-15, 38 µM; in the experiment with HL-60, 33 µM (inactive); in the experiment on A549, 35 µM (inactive); with SN12C it was 81.3 µM (inactive).
As for `CCN(CC)CCOCC1CCCN2CCCCC12` (configuration not stated), the GI50 with NCI-H23, with CCRF-CEM, in the experiment on Malme-3M, with SF-268, with NCI/ADR-RES and in the experiment with COLO 205 was > 100 µM (inactive) throughout. In addition, the GI50 with RXF 393, in the experiment with SK-MEL-28, in the experiment on MCF7, with SK-MEL-5, in the experiment with SK-OV-3 and in the experiment with UO-31 was > 100 µM (inactive) throughout. Further, the GI50 in the experiment with HCT-15 was greater than 100 µM; in the experiment with HL-60, > 100 µM (inactive); with A549 it was > 100 µM (inactive); in the experiment with SN12C it was > 100 µM (inactive).
